For experiment [1], the species on record is Sus scrofa. The experiment in a line: Inhibition of pig lung ACE at 100 umol/L assessed as enzyme restrain rate. Details: scale not given: the % may be the effect or the level left.
The species entered for experiment [2] is Sus scrofa. Kind of experiment: Inhibition of pig lung ACE at 10 umol/L assessed as enzyme restrain rate. Details: scale not given: the % may be the effect or the level left.
Experiment [3] is filed under the species Sus scrofa. Kind of experiment: Inhibition of pig lung ACE at 1 umol/L assessed as enzyme restrain rate. More on the design: scale not given: the % may be the effect or the level left.
For experiment [4], the species on record is Sus scrofa. The experiment in a line: Inhibition of pig lung ACE at 100 nmol/L assessed as enzyme restrain rate. Details: scale not given: the % may be the effect or the level left.
The species named for experiment [5] is Sus scrofa. Kind of experiment: Inhibition of pig lung ACE at 10 nmol/L assessed as enzyme restrain rate. Details: scale not given: the % may be the effect or the level left.
The species entered for experiment [6] is Sus scrofa. Kind of experiment: Inhibition of pig lung ACE at 100 pmol/L assessed as enzyme restrain rate. More on the design: scale not given: the % may be the effect or the level left.
The species named for experiment [7] is Sus scrofa. Kind of experiment: Inhibition of pig lung ACE at 10 pmol/L assessed as enzyme restrain rate. More on the design: scale not given: the % may be the effect or the level left.
The species named for experiment [8] is Sus scrofa. The experiment in a line: Inhibition of pig lung ACE at 1 pmol/L assessed as enzyme restrain rate. Details: scale not given: the % may be the effect or the level left.
Experiment [9] concerns Rattus norvegicus. Kind of experiment: Acute antihypertensive activity in two-kidney one-clip renal hypertensive rat assessed as reduction in systolic arterial pressure at 100 mg/kg/day. The class given is functional, organism-based.
The subject of experiment [10] is Rattus norvegicus. The experiment in a line: Acute antihypertensive activity in two-kidney one-clip renal hypertensive rat assessed as reduction in diastolic arterial pressure at 100 mg/kg/day. The class given is functional, organism-based.

Activity calls are given as the source filed them. No cut-off for these calls is given here.

Take `C[C@H](CS)C(=O)N1CCC[C@H]1C(=O)O`: the Activity in the experiment filed under Sus scrofa [1] was 94%; in the experiment listed under Sus scrofa [2], 94%; in the experiment filed under Sus scrofa [3] it was 95%; in the experiment listed under Sus scrofa [4], 97%; in the experiment listed under Sus scrofa [5] it was 96%; in the experiment filed under Sus scrofa [6], 48%. Further, the Activity in the experiment listed under Sus scrofa [7] came to 47%; in the experiment filed under Sus scrofa [8], 42%.

Regarding `CC1OCc2c(ccc(O)c2O)C1=O` (racemic), the outcome in the experiment on Rattus norvegicus [9] and with Rattus norvegicus [10] was Active. In addition, the Activity in the experiment filed under Sus scrofa [1] is 77%; in the experiment filed under Sus scrofa [2] it was 61%; in the experiment filed under Sus scrofa [3] it was 61%; in the experiment filed under Sus scrofa [4] it was 74%; in the experiment filed under Sus scrofa [5], 87%; in the experiment filed under Sus scrofa [6], 44%. The Activity in the experiment listed under Sus scrofa [7] stood at 41%; in the experiment filed under Sus scrofa [8], 34%.

(Values after ChEMBL document CHEMBL1153307, “Total synthesis and antihypertensive activity of (+/-)7,8-dihydroxy-3-methyl-isochromanone-4” (Bioorg Med Chem Lett, 2009).)
